# Experiment: Antagonist activity at human CCR2 in PBMCs assessed as inhibition of chemotaxis
row,Structure (SMILES),IC50
1,O=C(CNC(=O)c1cccc(C(F)(F)F)c1)N[C@H]1CCCC[C@H]1NC(=O)c1ccc(I)cc1,160 nM
2,Nc1ccc(C(F)(F)F)cc1C(=O)NCC(=O)N[C@H]1CCCC[C@H]1NC(=O)c1ccc(S(N)(=O)=O)cc1,63 nM
3,NS(=O)(=O)c1ccc(C(=O)N[C@@H]2CCCC[C@@H]2NC(=O)CNC(=O)c2cc(C(F)(F)F)ccc2NC(=O)C2CCCCC2)cc1,0.5 nM
4,CSc1ccc(C(=O)N[C@@H]2CCCC[C@@H]2NC(=O)CNC(=O)c2cccc(C(F)(F)F)c2)cc1,1200 nM
5,NS(=O)(=O)c1ccc(C(=O)N[C@@H]2CCCC[C@@H]2NC(=O)CNC(=O)c2cccc(C(F)(F)F)c2)cc1,130 nM
